Laboratory results as given in patent publication US9884067B2, “Androgen receptor down-regulating agents and uses thereof” (UNIVERSITY OF MARYLAND EASTERN SHORE, priority 2013, dated 2018).
Where “and” joins values, the source holds several entries; their conditions need not be identical. Equal entries are not always repeated. Where two headings read alike, the source gives them in different places.

Columns and labels:
AR = target: T1, AR (Homo sapiens, UniProt P10275, T878A); assay: AR down-regulation, western blot analysis in LNCaP cells; format: cell-based; details: 24 h, western blot
T1 construct: host or cells: LNCaP
T1 sequence (P10275 1-920 T878A): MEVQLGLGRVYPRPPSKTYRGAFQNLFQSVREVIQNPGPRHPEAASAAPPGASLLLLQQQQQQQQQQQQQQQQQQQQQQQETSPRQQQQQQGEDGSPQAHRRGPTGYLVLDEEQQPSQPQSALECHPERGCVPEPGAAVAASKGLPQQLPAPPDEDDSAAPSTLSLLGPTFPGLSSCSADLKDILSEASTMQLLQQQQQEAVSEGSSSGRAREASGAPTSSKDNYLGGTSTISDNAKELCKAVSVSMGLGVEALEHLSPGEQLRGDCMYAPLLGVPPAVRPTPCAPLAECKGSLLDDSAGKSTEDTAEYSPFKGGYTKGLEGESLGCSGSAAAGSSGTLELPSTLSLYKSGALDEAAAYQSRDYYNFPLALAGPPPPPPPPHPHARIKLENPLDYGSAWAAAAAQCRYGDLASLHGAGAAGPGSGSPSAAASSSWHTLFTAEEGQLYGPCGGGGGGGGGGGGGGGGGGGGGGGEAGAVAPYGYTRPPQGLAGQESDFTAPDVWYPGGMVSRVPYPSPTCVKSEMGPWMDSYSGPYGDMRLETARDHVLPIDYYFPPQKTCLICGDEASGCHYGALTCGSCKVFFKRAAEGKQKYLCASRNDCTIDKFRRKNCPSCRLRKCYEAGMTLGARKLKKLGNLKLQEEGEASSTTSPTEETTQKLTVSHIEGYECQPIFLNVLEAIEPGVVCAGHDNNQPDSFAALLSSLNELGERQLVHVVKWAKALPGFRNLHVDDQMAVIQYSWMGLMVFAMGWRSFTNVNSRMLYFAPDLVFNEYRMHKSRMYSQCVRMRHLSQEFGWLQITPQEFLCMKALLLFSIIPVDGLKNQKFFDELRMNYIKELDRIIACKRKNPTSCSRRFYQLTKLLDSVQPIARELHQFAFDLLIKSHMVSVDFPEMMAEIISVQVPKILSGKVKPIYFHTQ
Procedure: (§1) For the Western blot analyses, LNCaP or CWR22v1 prostate cancer cells were cultured. The cells were then treated with the indicated compounds and whole cell lysates were prepared using RIPA lysis buffer (Sigma Aldrich) and protease and phosphatase inhibitors (Sigma Aldrich). All of the antibodies were ordered from cell signaling technology. Protein content was determined using the Bradford Assay (Bio-Rad, Hercules, Calif., USA). Protein was subjected to SDS-PAGE and transferred onto nitrocellulosemembrane. Membranes were then incubated with secondary antibody (cell signaling technology) at room temperature for 1 hour. Bands were visualized by chemiluminescence (Millipore). Protein expression was normalized to β-actin and densitometry was carried out using Image J or ImageQuant 5.0 (Molecular Dynamics, Sunnyvale, Calif., USA). CWR22Rv1 cells were used for endogenous levels of splice variant AR-3. Protein levels were analyzed with respective antibodies; full length AR and β-actin antibodies were purchased from cell signaling, antibody specific for splice variant AR-3 was obtained from Dr. Yun Qiu, University of Maryland, School of Medicine, Baltimore.

human CYP17A1 (CYP171dH) = target: T2, human CYP17A1 (CYP171dH) (Homo sapiens, UniProt P05093); assay: CYP17 inhibition studies; format: biochemical
T2 sequence (P05093 with tags, fused parts or gaps limits assumed): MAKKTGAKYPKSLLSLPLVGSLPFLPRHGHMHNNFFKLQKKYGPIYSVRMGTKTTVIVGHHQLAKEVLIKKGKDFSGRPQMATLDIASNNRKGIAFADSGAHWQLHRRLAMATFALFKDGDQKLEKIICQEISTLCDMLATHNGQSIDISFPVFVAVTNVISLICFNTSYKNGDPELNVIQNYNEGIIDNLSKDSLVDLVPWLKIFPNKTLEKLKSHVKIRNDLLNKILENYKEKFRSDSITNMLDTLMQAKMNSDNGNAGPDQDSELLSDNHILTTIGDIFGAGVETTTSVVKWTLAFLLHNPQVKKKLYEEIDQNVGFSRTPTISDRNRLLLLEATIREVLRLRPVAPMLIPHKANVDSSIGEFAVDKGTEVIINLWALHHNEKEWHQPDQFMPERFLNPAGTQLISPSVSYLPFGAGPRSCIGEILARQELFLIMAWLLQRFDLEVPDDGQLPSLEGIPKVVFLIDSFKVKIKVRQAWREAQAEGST
Procedure: Some compounds were evaluated for their ability to inhibit CYP17 enzyme. A truncated version of human CYP17A1 (CYP171dH) was expressed in E. coli and then purified to homogeneity.

LNCaP cells = assay: MTT colorimetric anti-proliferative assay; format: cell-based, human
Procedure: The cells were treated for 7 days with renewal of test compound and media on day 4. On the 7th day, medium was renewed and MTT (3-(4,5-dimethylthiazol-2-yl)-2,5-diphenyl-2H-tetrazolium bromide) (Sigma, St Louis, Mo., USA) solution (0.5 mg MTT per ml of media) was added to the medium such that the ratio of MTT: medium was 1:10. The cells were incubated with MTT for 2 hours. The medium was then aspirated and DMSO was added to solubilize the violet MTT-formazan product.

full-length AR = assay: Down-regulation of full-length AR, western blot in CWR22rv1 cells; format: cell-based, human; details: CWR22rv1 prostate cancer cell line
Procedure: (§2) Due to the potential implication of AR splice variants lacking the ligand-binding domain (truncated AR) in driving the progression of CRPC, the effects of the compounds on the down-regulation of AR-3 (also called AR-V7) were determined.
as §1, with “USA).” for “USA). CWR22Rv1 cells were used for endogenous levels of splice variant AR-3. Protein levels were analyzed with respective antibodies; full length AR and β-actin antibodies were purchased from cell signaling, antibody specific for splice variant AR-3 was obtained from Dr. Yun Qiu, University of Maryland, School of Medicine, Baltimore.”

AR-3 (also called AR-V7) = target: T3, AR-3 (also called AR-V7) (Homo sapiens, UniProt P10275); assay: Down-regulation of truncated AR splice variant, western blot in CWR22rv1 cells; format: cell-based; details: CWR22rv1 prostate cancer cell line
T3 construct: endogenous in cells; host or cells: CWR22Rv1
T3 sequence (P10275 1-644 isoform P10275-3): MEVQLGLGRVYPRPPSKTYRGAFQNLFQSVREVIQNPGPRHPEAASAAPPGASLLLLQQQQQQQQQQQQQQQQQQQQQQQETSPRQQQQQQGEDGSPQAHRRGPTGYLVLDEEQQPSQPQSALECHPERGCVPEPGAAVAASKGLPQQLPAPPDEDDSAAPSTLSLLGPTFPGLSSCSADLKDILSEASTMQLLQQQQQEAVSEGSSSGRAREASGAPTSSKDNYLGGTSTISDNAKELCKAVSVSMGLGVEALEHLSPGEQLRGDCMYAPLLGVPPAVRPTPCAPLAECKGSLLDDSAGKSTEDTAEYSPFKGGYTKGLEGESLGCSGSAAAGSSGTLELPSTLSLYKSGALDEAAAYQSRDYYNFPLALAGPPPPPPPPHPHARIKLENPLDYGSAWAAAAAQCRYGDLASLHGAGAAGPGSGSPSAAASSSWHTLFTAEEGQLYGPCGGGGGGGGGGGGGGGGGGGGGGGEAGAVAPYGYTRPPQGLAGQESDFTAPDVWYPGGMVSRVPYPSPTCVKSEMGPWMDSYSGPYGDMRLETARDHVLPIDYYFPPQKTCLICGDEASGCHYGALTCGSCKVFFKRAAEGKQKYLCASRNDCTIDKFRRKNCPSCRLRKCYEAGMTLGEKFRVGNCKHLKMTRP
Procedure: as §2
as §1, with “USA).” for “USA). CWR22Rv1 cells were used for endogenous levels of splice variant AR-3. Protein levels were analyzed with respective antibodies; full length AR and β-actin antibodies were purchased from cell signaling, antibody specific for splice variant AR-3 was obtained from Dr. Yun Qiu, University of Maryland, School of Medicine, Baltimore.”

[1] = Solubility in ethanol or DMSO; format: physicochemical
AR in LNCaP cells = target: T4, AR in LNCaP cells (Homo sapiens, UniProt P10275, T878A); assay: Whole cell competitive binding assay with [3H]R1881; details: 30 µM
T4 sequence (P10275 1-920 T878A): T1 sequence (P10275 1-920 T878A)
Procedure: The androgen receptor competitive binding assays were performed with the synthetic androgen methyltrienolone [^3H]R1881. […] To determine the kinetics of [^3H]R1881 binding to the LNCaP AR cells were plated (2-3×10^5 cells/well) in 24 well multiwell dishes in steroid-free medium and allowed to attach. […] Following a 2 hour incubation period at 37° C., cells were washed twice with ice-cold DPBS and solubilized in DPBS containing 0.5% SDS and 20% glycerol. Extracts were removed and cell associated radioactivity counted in a scintillation counter. The data was analyzed, including Kd and Bmax determination, by nonlinear regression using Graphpad Prism software (GraphPad Software, Inc, San Diego, Calif.). When the concentration of [^3H]R1881 required to almost saturate AR in both cell lines was established (5.0 nM), the ability of the test compounds (1 nM-10 μM) to displace [^3H]R1881 (5.0 nM) from the receptors was determined as described above. The IC50 of each compound was determined by nonlinear regression with Graphpad Prism software (GraphPad Software, Inc, San Diego, Calif.).

[2] = each in duplicate, from dose-response curves
[3] = Homo sapiens, LNCaP, 168 h, LNCaP, MTT, 7 days, Table 2, read-out: GI50 of C-17 modified compounds
[4] = Homo sapiens, LNCaP, 168 h, LNCaP, MTT, 7 days, Table 4, read-out: GI50 of C-3 modified compounds

C[C@]12CC[C@H](O)CC1=CC[C@@H]1[C@@H]2CC[C@]2(C)C(n3ccc4ccccc43)=CC[C@@H]12 [Compound 16, 3β-Hydroxy-17-(1H-indol-1-yl)-androsta-5,16-diene]
AR down-regulation (ARD) activity, in words (AR): up-regulation of AR | IC50 (human CYP17A1 (CYP171dH); [2]): 93.7 to 258 µM and 130 µM | GI50 (LNCaP cells; [3]): > 100 µM | melting point: 142 to 145 °C

C[C@]12CCC(=NO)C=C1CC[C@@H]1[C@@H]2CC[C@]2(C)C(n3cnc4ccccc43)=CC[C@@H]12 (mixture of isomers) [Compound 36, 3-((EZ)-Hydroximino)-17-(1H-Benzimidazol-1-yl)-androsta-4,16-diene]
down-regulation of full-length AR (full-length AR): significant down-regulation | down-regulation of truncated AR (AR-3) (AR-3 (also called AR-V7)): significant down-regulation | IC50 (human CYP17A1 (CYP171dH); [2]): 93.7 to 258 µM and 258 µM | GI50 (LNCaP cells; [4]): 1.91 µM

C[C@]12CC[C@H](OC(=O)c3cccnc3)CC1=CC[C@@H]1[C@@H]2CC[C@]2(C)C(n3cnc4ccccc43)=CC[C@@H]12 [Compound 42, 3β-(Pyridine-3-carboxylate)-17-(1H-benzimidazol-1-yl)-androsta-5,16-diene]
solubility in ethanol or DMSO [1]: limited solubilities in ethanol or DMSO

C[C@]12CC[C@H](O)CC1=CC[C@@H]1[C@@H]2CC[C@]2(C)C(c3cccnc3)=CC[C@@H]12 [Abiraterone alcohol (3b), abiraterone alcohol, reference compound]
IC50 (human CYP17A1 (CYP171dH); [2]): 0.206 µM | GI50 (LNCaP cells; LNCaP, MTT, 7 days, Table 2, read-out: GI50 of C-17 modified compounds): 1.97 µM

Cc1nccn1C(=O)O[C@H]1CC[C@@]2(C)C(=CC[C@@H]3[C@@H]2CC[C@]2(C)C(n4cnc5ccccc54)=CC[C@@H]32)C1 [Compound 48, 3β-(2-Methyl-1H-imidazole-1-carboxylate)-17-(1H-benzimidazol-1-yl)-androsta-5,16-diene]
IC50 (human CYP17A1 (CYP171dH); [2]): 93.7 to 258 µM and 93.7 µM | GI50 (LNCaP cells; [4]): 5.34 µM | fold decrease in anti-proliferative activity (LNCaP cells; relative to 47): 6 fold | melting point: 186 to 187 °C

C[C@]12CC[C@H](OC(=O)c3ccncc3)CC1=CC[C@@H]1[C@@H]2CC[C@]2(C)C(n3cnc4ccccc43)=CC[C@@H]12 [Compound 43, 3β-(Pyridine-4-carboxylate)-17-(1H-benzimidazol-1-yl)-androsta-5,16-diene]
GI50 (LNCaP cells; read-out: GI50 of C-3 modified compounds): 2.57 µM | inhibition of [3H]R1881 binding / displacement (AR in LNCaP cells): ~53%

C[C@]12CC[C@H](O)CC1=CC[C@@H]1[C@@H]2CC[C@]2(C)C(n3ccnc3)=CC[C@@H]12 [VN/85-1, 3β-hydroxy-17-(1H-imidazole-1-yl)androsta-5,16-diene, reference compound]
IC50 (human CYP17A1 (CYP171dH)): 0.125 µM

COc1ccc(NCC2=C(n3cnc4ccccc43)[C@@]3(C)CC[C@H]4[C@@H](CC=C5C[C@@H](O)CC[C@@]54C)[C@@H]3C2)cc1OC [Compound 31, 3β-Hydroxy-17-(1H-benzimidazol-1-yl)-16-(((3,4-dimethoxyphenyl)amino)methyl)-androsta-5,16-diene]
AR down-regulation (ARD) activity, in words (AR): significant loss of ARD | down-regulation of full-length AR (full-length AR): significant down-regulation | down-regulation of truncated AR (AR-3) (AR-3 (also called AR-V7)): significant down-regulation | GI50 (LNCaP cells; Homo sapiens, LNCaP, 168 h, LNCaP cells, MTT, 7 days, Table 3, read-out: GI50 of C-16 modified compounds): > 100 µM

C[C@]12CCC(=NOc3ccccc3)C=C1CC[C@@H]1[C@@H]2CC[C@]2(C)C(n3cnc4ccccc43)=CC[C@@H]12 (mixture of isomers) [Compound 37, 3-((EZ)—O-Phenyloxime)-17-(1H-Benzimidazol-1-yl)-androsta-4,16-diene]
solubility in ethanol or DMSO [1]: limited solubility in ethanol or DMSO

C[C@]12CC[C@H](OC(=O)c3ccccn3)CC1=CC[C@@H]1[C@@H]2CC[C@]2(C)C(n3cnc4ccccc43)=CC[C@@H]12 [Compound 41, 3β-(Pyridine-2-carboxylate)-17-(1H-benzimidazol-1-yl)-androsta-5,16-diene]
solubility in ethanol or DMSO [1]: limited solubilities in ethanol or DMSO

C[C@]12CC[C@H](O)CC1=CC[C@@H]1[C@@H]2CC[C@]2(C)C(n3cnc4ccccc43)=CC[C@@H]12 [Compound 5, 3β-Hydroxy-17-(1H-benzimidazol-1-yl)-androsta-5,16-diene, reference compound]
down-regulation of full-length AR (full-length AR): significant down-regulation | IC50 (human CYP17A1 (CYP171dH); [2]): 0.752 µM | GI50 (LNCaP cells; [3]): 3.35 µM
